What was measured:
[1] = target: T1, ATP-dependent translocase ABCB1 (Homo sapiens, UniProt P08183); assay: TP_TRANSPORTER: transepithelial transport (basal to apical) in HCT-8 cells; format: functional, cell-based
[2] = target: T1, ATP-dependent translocase ABCB1; assay: TP_TRANSPORTER: inhibition of Rhodamine 123 transepithelial transport (basal to apical) (R123: 13 uM, Saquinavir: 20uM) in HCT-8 cells; format: functional, cell-based; conditions: hct-8, 20 µM

T1 sequence (P08183 whole entry): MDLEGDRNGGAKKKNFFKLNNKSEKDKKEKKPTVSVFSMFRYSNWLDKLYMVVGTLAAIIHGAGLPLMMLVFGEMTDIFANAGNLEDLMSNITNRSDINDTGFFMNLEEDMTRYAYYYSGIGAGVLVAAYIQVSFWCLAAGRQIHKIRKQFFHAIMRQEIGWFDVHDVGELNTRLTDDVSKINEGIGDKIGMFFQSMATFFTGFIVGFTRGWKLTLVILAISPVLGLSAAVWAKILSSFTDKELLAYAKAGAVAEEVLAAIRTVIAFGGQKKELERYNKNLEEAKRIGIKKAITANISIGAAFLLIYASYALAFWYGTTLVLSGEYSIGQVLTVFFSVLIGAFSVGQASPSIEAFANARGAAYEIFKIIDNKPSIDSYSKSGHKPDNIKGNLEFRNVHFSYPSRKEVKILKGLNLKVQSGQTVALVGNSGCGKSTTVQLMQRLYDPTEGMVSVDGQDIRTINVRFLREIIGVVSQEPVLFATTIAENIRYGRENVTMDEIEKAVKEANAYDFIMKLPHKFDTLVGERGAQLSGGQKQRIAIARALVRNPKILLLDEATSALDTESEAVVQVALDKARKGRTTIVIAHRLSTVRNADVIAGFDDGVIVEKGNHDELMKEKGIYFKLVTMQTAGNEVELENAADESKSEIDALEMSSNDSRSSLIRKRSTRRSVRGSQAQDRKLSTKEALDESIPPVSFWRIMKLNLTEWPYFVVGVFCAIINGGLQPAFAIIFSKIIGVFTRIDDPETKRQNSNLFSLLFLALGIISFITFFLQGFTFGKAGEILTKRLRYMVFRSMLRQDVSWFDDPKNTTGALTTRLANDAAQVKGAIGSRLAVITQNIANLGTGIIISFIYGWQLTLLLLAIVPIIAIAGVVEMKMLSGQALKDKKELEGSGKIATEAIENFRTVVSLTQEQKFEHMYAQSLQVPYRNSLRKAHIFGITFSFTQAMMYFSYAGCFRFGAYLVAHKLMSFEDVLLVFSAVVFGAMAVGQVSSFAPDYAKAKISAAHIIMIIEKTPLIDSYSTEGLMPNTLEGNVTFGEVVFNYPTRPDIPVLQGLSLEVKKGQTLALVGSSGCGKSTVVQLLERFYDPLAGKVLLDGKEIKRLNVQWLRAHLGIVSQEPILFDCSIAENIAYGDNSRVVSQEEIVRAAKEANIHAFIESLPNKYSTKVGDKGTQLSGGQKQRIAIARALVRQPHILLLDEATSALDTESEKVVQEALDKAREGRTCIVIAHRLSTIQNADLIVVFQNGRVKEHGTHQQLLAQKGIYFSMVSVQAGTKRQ

CC(C)(C)NC(=O)[C@@H]1C[C@@H]2CCCC[C@@H]2CN1C[C@@H](O)[C@H](Cc1ccccc1)NC(=O)[C@H](CC(N)=O)NC(=O)c1ccc2ccccc2n1 was tested, and the Activity [1] was “substrate [+]” and the Activity [2] was “inhibitor [(at a rough estimate) 45 % of control]”.
COC(=O)c1ccccc1-c1c2ccc(=N)cc-2oc2cc(N)ccc12.Cl [RHODAMINE123] was tested, and the Activity [1] was “substrate [+]”.
